Assay results as given in paper PMC9264115, “Pd-catalyzed C–C and C–N cross-coupling reactions in 2-aminothieno[3,2-d]pyrimidin-4(3H)-one series for antiplasmodial pharmacomodulation” (RSC Advances, 2022).

What was measured:
[1] = test system: K1 culture-adapted P. falciparum strain; experiment: Antiplasmodial evaluation, SYBR Green I fluorescence-based drug susceptibility test; type: cell-based; details: for EC50: Plasmodium falciparum, multi-resistant K1 strain of P. falciparum, 72 h incubation, three independent experiments, read-out: EC50 PfK1; for SI (selectivity index): from CC50 HepG2 and EC50 PfK1
Experimental: […]. Parasitemia was maintained daily between 1 and 3%. The P. falciparum drug susceptibility test was carried out by comparing quantities of DNA in treated and control cultures of parasite in human erythrocytes according to a SYBR Green I fluorescence-based method[19] using a 96-well fluorescence plate reader. Compounds previously dissolved in DMSO (final concentration less than 0.5% v/v) were incubated in a total assay volume of 200 μL (RPMI, 2% hematocrit and 0.4% parasitemia) for 72 h in a humidified atmosphere (10% O2 and 5% CO2) at 37 °C in 96-well flat bottom plates. Duplicate assays were performed for each sample. After incubation, plates were frozen at […] for 24 h. Then, the frozen plates were thawed for 1 h at 37 °C. Fifteen μL of each sample were transferred to 96-well flat bottom non-sterile black plates (Greiner Bio-one, Kremsmünster, Austria), already containing 15 μL of the SYBR Green I lysis buffer (2X SYBR Green I, 20 mM Tris base pH 7.5, 20 mM EDTA, 0.008% w/v saponin, 0.08% w/v Triton X-100). […] Plates were incubated for 15 min at 37 °C and then read on a TECAN Infinite F-200 spectrophotometer with excitation and emission wavelengths at 485 and 535 nm, respectively.

[2] = Cytotoxic evaluation, MTT assay; type: cell-based; details: HepG2 cells, human HepG2 cell line, three independent experiments
Experimental: The HepG2 cell line was maintained at 37 °C, 5% CO2, at 90% humidity in […] supplemented with 10% fetal bovine serum, 1% L-glutamine (200 mM), and penicillin (100 U per mL)/streptomycin (100 μg mL^−1) (complete RPMI medium). The cytotoxicity of the tested molecules on the HepG2 (hepatocarcinoma cell line purchased from ATCC, ref HB-8065) cell line was assessed according to the method of Mosmann[20] with slight modifications. Briefly, 5 × 10^3 cells in 100 μL of complete medium were inoculated into each well of 96-well plates and incubated at 37 °C in humidified 5% CO2. After 24 h incubation, 100 μL of medium with various product concentrations dissolved in DMSO (final concentration less than 0.5% v/v) were added and the plates were incubated for 72 h at 37 °C. Triplicate assays were performed for each sample. Each plate was then microscopically examined for possible precipitate formation before the medium was aspirated from the wells. Next, 100 μL of MTT (3-(4,5-dimethyl-2-thiazolyl)-2,5-diphenyl-2H-tetrazolium bromide) solution (0.5 mg mL^−1 in medium without FBS) was added to each well. Cells were incubated for 2 h at 37 °C. After this time, the MTT solution was removed and DMSO (100 μL) was added to dissolve the resulting blue formazan crystals. Plates were shaken vigorously (700 rpm) for 10 min. The absorbance was measured at 570 nm with 630 nm as a reference wavelength using a BIO-TEK ELx808 Absorbance Microplate Reader (LabX, Midland, ON, Canada). DMSO was used as a blank and doxorubicin (purchased from Sigma Aldrich) as a positive control. Cell viability was calculated as a percentage of control (cells incubated without the compound). […] CC50 values to represent the mean value calculated from three independent experiments.

Row | SMILES | melting point | EC50 [1] | SI (selectivity index) [1] | CC50 at 72 h [2]
1 | CN1CCN(c2ncc(-c3cc4nc(NC(C)(C)C)[nH]c(=O)c4s3)cn2)CC1 [Compound 4o, 2-tert-Butylamino-6-[2-(4-methylpiperazin-1-yl)pyrimidin-5-yl]thieno[3,2-d]pyrimidin-4(3H)-one] | 289 to 291 °C | 4.4 ± 1 µM | 2.5 | 11.2 ± 1.3 µM
2 | CC(C)(C)Nc1nc2cc(N3CCOCC3)sc2c(=O)[nH]1 [Compound 1f, 2-tert-Butylamino-6-(morpholin-4-yl)thieno[3,2-d]pyrimidin-4(3H)-one] | 264 to 266 °C | 4.5 ± 1.1 µM | >11.1 | > 50 µM
3 | CC(C)Nc1nc2cc(-c3ccc(F)c(Cl)c3)sc2c(=O)[nH]1 [Compound 4f, 2-(Propan-2-ylamino)-6-(3-chloro-4-fluorophenyl)thieno[3,2-d]pyrimidin-4(3H)-one] | > 300 °C | 3.6 ± 1.2 µM | >1.7 | > 6.25 µM

More lines, main results first:

Row | melting point | EC50 [1] | SMILES | SI (selectivity index) [1] | CC50 at 72 h [2]
4 | 251 to 253 °C | > 12.5 µM | CC(C)(C)Nc1nc2cc(-c3ccc(S(C)(=N)=O)cc3)sc2c(=O)[nH]1 (centres unmarked) [Compound 4s, 2-tert-Butylamino-6-[4-(methylsulfonimidoyl)phenyl]thieno[3,2-d]pyrimidin-4(3H)-one] | <5.1 | 63.3 ± 14.6 µM
5 | > 300 °C | > 12.5 µM | CC(C)(C)Nc1nc2cc(-c3ccc(S(N)(=O)=O)cc3)sc2c(=O)[nH]1 [Compound 4l, 4-(2-tert-Butylamino-4-oxo-3,4-dihydrothieno[3,2-d]pyrimidin-6-yl)benzenesulfonamide] |  | > 6.25 µM
6 | > 300 °C | 2.4 ± 0.9 µM | CC(C)(C)Nc1nc2cc(-c3ccc(N4CCOCC4)cc3)sc2c(=O)[nH]1 [Compound 4g, 2-tert-Butylamino-6-[4-(morpholin-4-yl)phenyl]thieno[3,2-d]pyrimidin-4(3H)-one] | 3.3 | 7.9 ± 1.3 µM
